Tests used:
[1] = test system: rat; details: Developmental neurotoxicity study; wistar; Injection; Subcutaneous; dose end: 68 PND; group: cannot be grouped; developmental / offspring survival late / [other] / [other] + systemic / hematology / leukocyte (wbc) count differential / leukocyte (wbc…
[2] = test system: rat; details: Developmental neurotoxicity study; wistar; Injection; Subcutaneous; dose end: 42 PND; group: cannot be grouped; developmental / developmental malformation / general / crown-rump length + developmental / offspring survival late / [other] / [other] + …
[3] = test system: mouse; details: Developmental neurotoxicity study; other; Oral; [Not Specified]; dose end: 90 PND; group: cannot be grouped; systemic / in life observation / body weight / offspring (pup) weight gain + systemic / in life observation / clinical signs / convulsions
[4] = test system: rat; details: Developmental neurotoxicity study; wistar; Oral; Water; dose end: 60 PND; group: cannot be grouped; systemic / in life observation / body weight / offspring (pup) weight
[5] = test system: rabbit; details: Prenatal developmental toxicity study; new zealand white; Oral; Gavage/Intubation; dose end: 19 GD; group: maternal; systemic / in life observation / body weight / body weight + systemic / in life observation / clinical signs / [other] + systemic / in life …
[6] = test system: rat; details: Chronic toxicity; sprague dawley; Oral; Feed; dose end: 78 week; group: systemic; systemic / clinical chemistry / glucose / glucose + systemic / in life observation / body weight / body weight gain + systemic / in life …
[7] = test system: rat; details: Carcinogenicity; sprague dawley; Oral; Feed; dose end: 104 week; group: systemic; systemic / clinical chemistry / glucose / glucose + systemic / in life observation / body weight / body weight gain + systemic / in life …

Structure (SMILES): N[C@@H](CCC(=O)O)C(=O)[O-].[Na+] [Sodium l-glutamate]
- LOAEL [1]: > 4000 mg/kg/day
- NEL [1]: < 4000 mg/kg/day
- NOAEL [1]: ≥ 4000 mg/kg/day
- LEL [2]: 0.004 mg/kg/day
- LOAEL [2]: > 0.004 mg/kg/day
- NEL [2]: < 0.004 mg/kg/day
- NOAEL [2]: ≥ 0.004 mg/kg/day
- LEL [3]: 2.5 mg/kg/day
- LOAEL [3]: > 4 mg/kg/day
- NEL [3]: < 2.5 mg/kg/day
- NOAEL [3]: ≥ 4 mg/kg/day
- LEL [4]: 10000 mg/kg/day
- NEL [4]: < 10000 mg/kg/day
- NOAEL [4]: ≥ 10000 mg/kg/day

Structure (SMILES): OC[C@H]1O[C@H](O[C@]2(CCl)O[C@H](CCl)[C@@H](O)[C@@H]2O)[C@H](O)[C@@H](O)[C@H]1Cl [Sucralose]
- LEL [5]: 700 mg/kg/day
- LOAEL [5]: > 700 mg/kg/day
- NEL [5]: 350 mg/kg/day
- NOAEL [5]: ≥ 700 mg/kg/day
- LEL [6]: 150 mg/kg/day
- LOAEL [6]: > 15000 mg/kg/day
- NEL [6]: < 150 mg/kg/day
- NOAEL [6]: ≥ 15000 mg/kg/day
- LEL [7]: 150 mg/kg/day
- NEL [7]: < 150 mg/kg/day
- NOAEL [7]: ≥ 15000 mg/kg/day
